Measurements taken from patent publication US11446287B2, “Compounds and methods for EP300 or CBP modulation and indications therefor” (Opna Immuno-Oncology SA, priority 2019, dated 2022).

Each compound was assayed against T1, Recombinant human BRD4 containing dual bromodomains (BRD4-BD12 (1-477)) (Homo sapiens, UniProt O60885) (assay: BRD4 Alphascreen binding assay).
T1 construct: Recombinant human BRD4 containing dual bromodomains (BRD4-BD12 (1-477)); made in house; host or cells: E. coli BL21-CodonPlus (DE3), modified pET vector
How it was run: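 AlphaScreen proximity between Ni-chelate-bound BRD4-BD12 (1-477) and streptavidin-captured H4 K5/K8/K12/K16-acetyl peptide measured after 1 h room-temperature compound incubation and 30 min with 7.5 μg/ml beads. Buffer: 50 mM HEPES pH 7.5, 50 mM NaCl, 0.01% BSA, 0.01% Triton X-100; data plate-normalized and four-parameter fit for IC50.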

First: Cc1noc(C)c1-c1cnc2c(c1)c(-c1c(Cl)cc(C(=O)O)cc1OCC(F)F)cn2-c1cnc(N2CCC2)nc1 [P-0331, 4-(1-(2-(azetidin-1-yl)pyrimidin-5-yl)-5-(3,5-dimethylisoxazol-4-yl)-1H-pyrrolo[2,3-b]pyridin-3-yl)-3-chloro-5-(2,2-difluoroethoxy)benzoic acid]
Second: Cc1noc(C)c1-c1cnc2c(c1)c(-c1c(F)cc(C(=O)O)cc1OCC(F)F)cn2-c1cnc(N2CCC2)nc1 [P-0348, 4-(1-(2-(azetidin-1-yl)pyrimidin-5-yl)-5-(3,5-dimethylisoxazol-4-yl)-1H-pyrrolo[2,3-b]pyridin-3-yl)-3-(2,2-difluoroethoxy)-5-fluorobenzoic acid]
The IC50 of the first is lower: 0.0001 to 1 µM for the first, 8 to 1000 µM for the second. The first is the more potent here.

`Cc1noc(C)c1-c1cnc2c(c1)c(-c1c(Cl)cc(C(=O)O)cc1OCC(F)F)cn2-c1ccccc1` [P-0332, 3-chloro-5-(2,2-difluoroethoxy)-4-(5-(3,5-dimethylisoxazol-4-yl)-1-phenyl-1H-pyrrolo[2,3-b]pyridin-3-yl)benzoic acid] and `Cc1noc(C)c1-c1cnc2c(c1)c(-c1c(Cl)cc(C(=O)O)cc1OCC(F)F)cn2-c1cnn(C(F)F)c1C` [P-0352, 3-chloro-5-(2,2-difluoroethoxy)-4-(1-(1-(difluoromethyl)-5-methyl-1H-pyrazol-4-yl)-5-(3,5-dimethylisoxazol-4-yl)-1H-pyrrolo[2,3-b]pyridin-3-yl)benzoic acid] fall in the same range of IC50: 1 to 8 µM for the first, 1 to 8 µM for the second.

`Cc1noc(C)c1-c1cnc2c(c1)c(-c1c(Cl)cc(C(=O)O)cc1OCC(F)F)cn2[C@H]1CCOC1` [P-0333, (S)-3-chloro-5-(2,2-difluoroethoxy)-4-(5-(3,5-dimethylisoxazol-4-yl)-1-(tetrahydrofuran-3-yl)-1H-pyrrolo[2,3-b]pyridin-3-yl)benzoic acid] and `Cc1noc(C)c1-c1cnc2c(c1)c(-c1c(Cl)cc(C(=O)O)cc1OCC(F)F)cn2C1CCOCC1` [P-0359, 3-chloro-5-(2,2-difluoroethoxy)-4-(5-(3,5-dimethylisoxazol-4-yl)-1-(tetrahydro-2H-pyran-4-yl)-1H-pyrrolo[2,3-b]pyridin-3-yl)benzoic acid] fall in the same range of IC50: 8 to 1000 µM for the first, 8 to 1000 µM for the second.

`Cc1noc(C)c1-c1cnc2c(c1)c(-c1ccc(C(=O)O)cc1OC1CCC1)cn2-c1ncccc1C#N` [P-0334, 4-(1-(3-cyanopyridin-2-yl)-5-(3,5-dimethylisoxazol-4-yl)-1H-pyrrolo[2,3-b]pyridin-3-yl)-3-cyclobutoxybenzoic acid] and `Cc1noc(C)c1-c1cnc2c(c1)c(-c1ccc(C(=O)O)cc1OC1CC1)cn2-c1ncccc1C#N` [P-0337, 4-(1-(3-cyanopyridin-2-yl)-5-(3,5-dimethylisoxazol-4-yl)-1H-pyrrolo[2,3-b]pyridin-3-yl)-3-cyclopropoxybenzoic acid] fall in the same range of IC50: 8 to 1000 µM for the first, 8 to 1000 µM for the second.

`Cc1noc(C)c1-c1cnc2c(c1)c(-c1ccc(C(=O)O)cc1OC(F)(F)F)cn2C1(CC#N)CCC1` [P-0335, 4-(1-(1-(cyanomethyl)cyclobutyl)-5-(3,5-dimethylisoxazol-4-yl)-1H-pyrrolo[2,3-b]pyridin-3-yl)-3-(trifluoromethoxy)benzoic acid] and `Cc1noc(C)c1-c1cnc2c(c1)c(-c1ccc(C(=O)O)cc1OC(F)(F)F)c(C)n2C(C1CC1)C1CC1` [P-0343, 4-(1-(dicyclopropylmethyl)-5-(3,5-dimethylisoxazol-4-yl)-2-methyl-1H-pyrrolo[2,3-b]pyridin-3-yl)-3-(trifluoromethoxy)benzoic acid] fall in the same range of IC50: 8 to 1000 µM for the first, 8 to 1000 µM for the second.

`Cc1noc(C)c1-c1cnc2c(c1)c(-c1ccc(C(=O)O)cc1OC(C)C)cn2-c1ncccc1C#N` [P-0336, 4-(1-(3-cyanopyridin-2-yl)-5-(3,5-dimethylisoxazol-4-yl)-1H-pyrrolo[2,3-b]pyridin-3-yl)-3-isopropoxybenzoic acid] and `Cc1noc(C)c1-c1cnc2c(c1)c(-c1ccc(C(=O)O)cc1OC(C)C)cn2-c1cnn(C(F)F)c1C` [P-0354, 4-(1-(1-(difluoromethyl)-5-methyl-1H-pyrazol-4-yl)-5-(3,5-dimethylisoxazol-4-yl)-1H-pyrrolo[2,3-b]pyridin-3-yl)-3-isopropoxybenzoic acid] fall in the same range of IC50: 8 to 1000 µM for the first, 8 to 1000 µM for the second.

`Cc1noc(C)c1-c1cnc2c(c1)c(-c1ccc(C(=O)O)cc1OCC(F)F)cn2C(C1CC1)C1CC1` [P-0338, 4-(1-(dicyclopropylmethyl)-5-(3,5-dimethylisoxazol-4-yl)-1H-pyrrolo[2,3-b]pyridin-3-yl)-3-(2,2-difluoroethoxy)benzoic acid] and `Cc1noc(C)c1-c1cnc2c(c1)c(-c1c(Cl)cc(C(=O)O)cc1OCC(F)F)cn2C(C1CC1)C1CC1` [P-0340, 3-chloro-4-(1-(dicyclopropylmethyl)-5-(3,5-dimethylisoxazol-4-yl)-1H-pyrrolo[2,3-b]pyridin-3-yl)-5-(2,2-difluoroethoxy)benzoic acid] fall in the same range of IC50: 8 to 1000 µM for the first, 8 to 1000 µM for the second.

`COc1cc(C(=O)O)ncc1-c1cn(C(C2CC2)C2CC2)c2ncc(-c3c(C)noc3C)cc12` [P-0339, 5-(1-(dicyclopropylmethyl)-5-(3,5-dimethylisoxazol-4-yl)-1H-pyrrolo[2,3-b]pyridin-3-yl)-4-methoxypicolinic acid] and `Cc1noc(C)c1-c1cnc2c(c1)c(-c1c(Cl)cc(C(=O)O)cc1OC1CCC1)cn2C(C1CC1)C1CC1` [P-0356, 3-chloro-5-cyclobutoxy-4-(1-(dicyclopropylmethyl)-5-(3,5-dimethylisoxazol-4-yl)-1H-pyrrolo[2,3-b]pyridin-3-yl)benzoic acid] fall in the same range of IC50: 1 to 8 µM for the first, 1 to 8 µM for the second.

`Cc1noc(C)c1-c1cnc2c(c1)c(-c1ccc(C(=O)O)cc1OC1CCC1)cn2C1CCOCC1` [P-0341, 3-cyclobutoxy-4-(5-(3,5-dimethylisoxazol-4-yl)-1-(tetrahydro-2H-pyran-4-yl)-1H-pyrrolo[2,3-b]pyridin-3-yl)benzoic acid] and `Cc1noc(C)c1-c1cnc2c(c1)c(-c1ccc(C(=O)O)cc1OC1CCC1)cn2[C@H]1CCOC1` [P-0350, (S)-3-cyclobutoxy-4-(5-(3,5-dimethylisoxazol-4-yl)-1-(tetrahydrofuran-3-yl)-1H-pyrrolo[2,3-b]pyridin-3-yl)benzoic acid] fall in the same range of IC50: 8 to 1000 µM for the first, 8 to 1000 µM for the second.

`Cc1noc(C)c1-c1cnc2c(c1)c(-c1ccc(C(=O)O)cc1OC(C)C)c(C)n2C(C1CC1)C1CC1` [P-0342, 4-(1-(dicyclopropylmethyl)-5-(3,5-dimethylisoxazol-4-yl)-2-methyl-1H-pyrrolo[2,3-b]pyridin-3-yl)-3-isopropoxybenzoic acid] and `Cc1noc(C)c1-c1cnc2c(c1)c(-c1ccc(C(=O)O)cc1OC(C)C)cn2C1CCOCC1` [P-0357, 4-(5-(3,5-dimethylisoxazol-4-yl)-1-(tetrahydro-2H-pyran-4-yl)-1H-pyrrolo[2,3-b]pyridin-3-yl)-3-isopropoxybenzoic acid] fall in the same range of IC50: 8 to 1000 µM for the first, 8 to 1000 µM for the second.

First: Cc1noc(C)c1-c1ccc2c(c1)c(-c1ccc(C(=O)O)cc1OC(F)(F)F)cn2C(C1CC1)C1CC1 [P-0344, 4-(1-(dicyclopropylmethyl)-5-(3,5-dimethylisoxazol-4-yl)-1H-indol-3-yl)-3-(trifluoromethoxy)benzoic acid]
Second: Cc1noc(C)c1-c1cnc2c(c1)c(-c1c(Cl)cc(C(=O)O)cc1OC(F)(F)F)cn2C1CCOCC1 [P-0355, 3-chloro-4-(5-(3,5-dimethylisoxazol-4-yl)-1-(tetrahydro-2H-pyran-4-yl)-1H-pyrrolo[2,3-b]pyridin-3-yl)-5-(trifluoromethoxy)benzoic acid]
The IC50 of the first is higher: 8 to 1000 µM for the first, 1 to 8 µM for the second. The second is the more potent here.

`Cc1noc(C)c1-c1cnc2c(c1)c(-c1ccc(C(=O)O)cc1OC(F)(F)F)c(C)n2-c1ncccc1C#N` [P-0345, 4-(1-(3-cyanopyridin-2-yl)-5-(3,5-dimethylisoxazol-4-yl)-2-methyl-1H-pyrrolo[2,3-b]pyridin-3-yl)-3-(trifluoromethoxy)benzoic acid] and `Cc1nn(C(F)F)cc1-n1cc(-c2ccc(C(=O)O)cc2OCC(F)F)c2cc(-c3c(C)noc3C)cnc21` [P-0349, 3-(2,2-difluoroethoxy)-4-(1-(1-(difluoromethyl)-3-methyl-1H-pyrazol-4-yl)-5-(3,5-dimethylisoxazol-4-yl)-1H-pyrrolo[2,3-b]pyridin-3-yl)benzoic acid] fall in the same range of IC50: 8 to 1000 µM for the first, 8 to 1000 µM for the second.

First: Cc1noc(C)c1-c1cnc2c(c1)c(-c1c(Cl)cc(C(=O)O)cc1OC(F)(F)F)cn2[C@H]1CCOC1 [P-0346, (S)-3-chloro-4-(5-(3,5-dimethylisoxazol-4-yl)-1-(tetrahydrofuran-3-yl)-1H-pyrrolo[2,3-b]pyridin-3-yl)-5-(trifluoromethoxy)benzoic acid]
Second: Cc1noc(C)c1-c1cnc2c(c1)c(-c1c(Cl)cc(C(=O)O)cc1OC1CCC1)cn2C1CCOCC1 [P-0358, 3-chloro-5-cyclobutoxy-4-(5-(3,5-dimethylisoxazol-4-yl)-1-(tetrahydro-2H-pyran-4-yl)-1H-pyrrolo[2,3-b]pyridin-3-yl)benzoic acid]
The IC50 of the first is higher: 8 to 1000 µM for the first, 1 to 8 µM for the second.

`Cc1noc(C)c1-c1cnc2c(c1)c(-c1ccc(C(=O)O)cc1OC1CCC1)cn2-c1cnc(N2CCC2)nc1` [P-0347, 4-(1-(2-(azetidin-1-yl)pyrimidin-5-yl)-5-(3,5-dimethylisoxazol-4-yl)-1H-pyrrolo[2,3-b]pyridin-3-yl)-3-cyclobutoxybenzoic acid] and `Cc1noc(C)c1-c1cnc2c(c1)c(-c1ccc(C(=O)O)cc1OC1CCC1)cn2-c1cnn(C(F)F)c1C` [P-0353, 3-cyclobutoxy-4-(1-(1-(difluoromethyl)-5-methyl-1H-pyrazol-4-yl)-5-(3,5-dimethylisoxazol-4-yl)-1H-pyrrolo[2,3-b]pyridin-3-yl)benzoic acid] fall in the same range of IC50: 8 to 1000 µM for the first, 8 to 1000 µM for the second.

Compound `Cc1nn(C(F)F)cc1-n1cc(-c2ccc(C(=O)O)cc2OC2CCC2)c2cc(-c3c(C)noc3C)cnc21` [P-0351, 3-cyclobutoxy-4-(1-(1-(difluoromethyl)-3-methyl-1H-pyrazol-4-yl)-5-(3,5-dimethylisoxazol-4-yl)-1H-pyrrolo[2,3-b]pyridin-3-yl)benzoic acid] has an IC50 of 8 to 1000 µM.
